One assay relates to E. coli PmrA^G53E. The assay is classed as cell-based. As to conditions: for MIC: LB + 0.0005% tween-80, overnight 37 °C. The method, then:
(§1) Bacterial strains and plasmids are listed in SI Table S5. LB growth media was prepared according to manufacturer’s instructions and supplemented with 0.2% arabinose and carbenicillin (50 μg/mL) for the strains containing pBAD24-mcr1 plasmid. Cultures were started by inoculating 3 ml LB with 1–2 colonies from fresh overnight plates and grown at 37 °C until in log phase. Modified minimal inhibitory concentration (MIC) assays were performed in 96-well round bottom polystyrene plates (Corning) with a final volume of 100 µl in LB supplemented with tween-80 at 0.0005%. […] Polymyxin B sulfate (TCI Co. Ltd), polymyxin B nonapeptide (PMBN) (Sigma), and brevicidine (Genentech) were diluted directly in the assay plates. Bacteria were diluted in LB with tween-80 0.0005% and added to a final OD600 of 0.0005. Growth was measured via OD600 on a SpectraMax M5 plate reader after overnight static growth at 37 °C with humidity.

The subject of the next assay is E. coli mcr1. It is filed as cell-based. The following applies: for MIC: strain carrying plasmid encoding mcr-1, LB + 0.2% arabinose, carbenicillin, 0.0005% tween-80, overnight 37 °C. The method, then: as §1
Assay [1] relates to resistant-OMVs (E. coli PmrA^G53E). As to the kind of experiment: Single-cycle kinetic SPR binding to immobilized resistant-OMVs. As to conditions: serial doubling injections, C1 chip. The method, then:
Polymyxin B was covalently attached to a C1 chip (Series S Sensor Chip C1, Cytiva) using an amine coupling kit (Cytiva). Cartoon in Fig. 1A created with BioRender (biorender.com). Briefly, equal amounts of reagents N-hydroxysuccinimide and 1-ethyl-3-(3-dimethylaminopropyl) carbodiimide hydrochloride were mixed as per manufacturer’s instructions and immediately added to the gold chip surface for 2 min, washed with distilled deionized water, and dried. Sufficient polymyxin B (1 mM in 1 M HEPES buffer, pH 8) was added to cover the chip surface, incubated at room temperature for 1 h, washed as before, and then incubated with 1 M ethanolamine hydrochloride-NaOH, pH 8.5, for 1 min. The chip surface was washed with water, dried as previously described, immediately loaded into a Biacore S200, and primed with running buffer (described below) to equilibrate the system. C1 chips were used for multiple runs and discarded upon removal from the Biacore S200.
SCK C1-chip SPR experiments were performed in running buffer (Dulbecco’s phosphate-buffered salt solution 1x without calcium or magnesium (Fisher Scientific), pH 7.4, with 0.0005% tween-80 (Sigma) passed through a 0.2 µm filter) unless otherwise indicated. Inclusion of tween-80 prevented loss of polymyxin to the plastics[34] (also see Supplementary Information Methods). For experiments with brevicidine, which was suspended in DMSO, 0.125% DMSO was included in the running buffer. OMVs were diluted from frozen stocks to approximately 20–30 µg/ml protein in the OMV buffer. Capture of OMVs was performed at a low flow rate ([…]) for 300 s over the test channel(s) followed by a 300 s stabilization period. All subsequent steps were at a flow rate of 40 µl/ml. For single cycle kinetics, two-fold dilutions were injected over the channel(s) loaded with OMVs and a reference channel without OMVs for 30 s contact and 480 s dissociation. […]
A general note: In SPR one partner is held on a chip, and binding of the other changes the refractive index at the surface.

SMILES strings stand for the structures. Bridge positions count the residues as written; N and C are the ends. Square brackets hold non-standard residues; d marks the D form. Peptide text beside a SMILES is read from it. * marks the point of attachment. X1 = CC[C@H](C)CCCCC(=O)*; Dab = NCC[C@H](N)C(=O)O

As usually defined, the MIC is the smallest concentration in the dilution series that meets the test's criterion for growth inhibition. Turning to `CC(C)C[C@@H]1NC(=O)[C@@H](Cc2ccccc2)NC(=O)[C@H](CCN)NC(=O)[C@@H](NC(=O)[C@H](CCN)NC(=O)[C@@H](N)[C@@H](C)O)CCNC(=O)[C@H]([C@@H](C)O)NC(=O)[C@H](CCN)NC(=O)[C@H](CCN)NC1=O` [PMBN] (H-T[Dab][Dab][Dab][dF]L[Dab][Dab]T; lactam 3-C), the MIC with E. coli PmrA^G53E and in the assay with E. coli mcr1 was greater than 40 µM in each case. Besides, the “SPR binding profile” value in assay [1] was “exhibited only weak, saw-tooth binding”.

As for `CC[C@H](C)CCCCC(=O)N[C@@H](CCN)C(=O)N[C@H](C(=O)N[C@@H](CCN)C(=O)N[C@H]1CCNC(=O)[C@H]([C@@H](C)O)NC(=O)[C@H](CCN)NC(=O)[C@H](CCN)NC(=O)[C@H](CC(C)C)NC(=O)[C@@H](Cc2ccccc2)NC(=O)[C@H](CCN)NC1=O)[C@@H](C)O` [Polymyxin B] (X1-[Dab]T[Dab][Dab][Dab][dF]L[Dab][Dab]T; lactam 4-C (inferred); N-terminus assumed), the “antibacterial activity” value in the assay with E. coli PmrA^G53E and with E. coli mcr1 (pBAD-mcr-1) was “resistant to killing by polymyxin B” each time. The MIC in the assay with E. coli PmrA^G53E is 10 µM; in the assay on E. coli mcr1 it was 2.5 to 5 µM. Further, in assay [1], the “SPR binding profile” value is on record as “exhibited only the weak, saw-tooth binding”.

These data come from article PMC11148078, “Potent activity of polymyxin B is associated with long-lived super-stoichiometric accumulation mediated by weak-affinity binding to lipid A” (Nature Communications, 2024).
